According to PMC11206691, “N-Hydroxypiridinedione: A Privileged Heterocycle for Targeting the HBV RNase H” (Molecules, 2024):
Like-named read-outs stand apart in the source and are kept apart here.

Experiments:
[1] = test system: HBV replication; experiment: qPCR HBV replication inhibition assay in HepDES19 cells; type: cell-based, Hepatitis B virus (HBV) genotype D; details: 72 h, (+) DNA qPCR
Protocol: (§1) HepDES19 cells were incubated on collagen-coated plates at 37 °C with 5% CO2 and saturating humidity in Dulbecco’s modified Eagle’s medium (DMEM/F12) (Cytiva Life Sciences, Marlborough, MA, USA) supplemented with 10% fetal bovine serum (FBS), penicillin (100 IU/mL), and streptomycin (100 µg/mL). HepDES19 cells are HepG2 cells that carry a stably transfected HBV genotype D genome under the control of a tetracycline repressible promoter. Cells were maintained in the presence of 1 µg/mL tetracycline to repress the expression of the stably integrated HBV genome, and HBV replication was induced by the withdrawal of tetracycline from the culture medium.
HBV replication inhibition was measured in HepDES19 cells induced to replicate HBV by the removal of tetracycline using a strand-preferential quantitative PCR assay as previously described. Cells were seeded at 4 × 10^4 cells/well in 96-well plates for 48 h. Serially diluted compound was then added to cells at a final concentration of 1% DMSO for 72 h, after which the cells were lysed and qPCR was performed as described in Li et al.. EC50 values were calculated from the (+) DNA data with GraphPad Prism using the four-parameter log (inhibitor) versus response algorithm with the bottom value set to zero. Three or more replicate assays were performed on different days.

[2] = Parallel artificial membrane permeability assay; type: in vitro ADME; design: key to Papp Interpretation: High rate of apparent passive permeability (>1 × 10^−6 cm/s); Low rate of apparent passive permeability (<1 × 10^−6 cm/s); INS: Compound was insoluble in 100% DMSO; details: for Papp interpretation (high/low permeability category) at 2 h, 200 µM / Papp at 2 h, 200 µM: PAMPA; for Papp interpretation (high/low permeability category) at 2 h, 200 µM: pH 7.4, pH 7.4; for Papp at 2 h, 200 µM: pH 7.4, pH 7.4, 200 μM; for Papp at 2 h, 200 µM / Papp: room temperature, 2 h; for Papp Interpretation: pH 7.4; for Papp: pH 7.4, 200 μM
Protocol: Apparent passive permeability (Papp) was assessed at pH 7.4 using a 96-well donor/acceptor cassette (Sigma Aldrich, Burlington, MA, USA), which mimics the apical and basolateral sides of the small intestine epithelium, as we have described previously. Briefly, an artificial membrane composed of 1% w/v lethicin/dodecane was added to the poly (vinylidene fluoride) (PVDF) membrane filter. Once dry, compounds (200 μM) were diluted in buffer at pH 7.4 and added to the donor side of the membrane, and the same pH buffer was added to the acceptor side. The cassette was assembled and incubated at room temperature with shaking at 250 rpm for 2 h, after which 100 μL of the acceptor well was retrieved and the experimental compound absorbance was read on a plate reader between 200 and 600 nm. Compound Papps (cm/s) values were determined by normalizing to the compound absorbance at equilibrium, incubation time, and membrane porosity Two or more replicate assays were conducted on different days.

[3] = Solubility limit assay (turbidity, DMEM-F12 + 10% FBS); type: physicochemical; details: pH 7.4, DMEM-F12 with 10% FBS, 1% DMSO, upper limit 200 µM
Protocol: Compound solubility limits were tested in DMEM-F12 without phenol red (Gibco, Grand Island, NY, USA) supplemented with 10% FBS (pH 7.2–7.4) to mimic cell culture experiments, as we have performed previously. Compounds were serially diluted in buffer at pH 7.4 in 384-well, optically clear plates (upper limit 200 µM, DMSO 1%) and read on a plate reader at 620 nm. Compound concentration (µM) was plotted against optical density (OD) and a solubility limit was determined by identifying an inflection point where there was a significant increase in optical density due to increasing turbidity; the concentration of the compound at the inflection point was defined as the solubility limit. Two or more replicate assays were performed on different days for each compound.

[4] = MTS cytotoxicity assay; type: cell-based; details: human, HepDES19 cells
Protocol: as §1
Cell viability was assessed using the CellTiter 96^TM Aqueous Non-Radioactive Cell Proliferation assay (MTS) (Promega, Madison, WI, USA) as described previously. HepDES19 cells were seeded at 1 × 10^4 cells per well in 96-well, and compound was added after 48 h. Cells incubated with serially diluted compound (1% DMSO) for 72 h. Bac absorbance values were subtracted, and data were converted to percent cell viability. The cytotoxic concentration 50% (CC50) values were calculated with GraphPad Prism by using the four-parameter variable response log (inhibitor) versus response algorithm with the bottom value set to zero. Three or more replicate assays were performed on different days.

[5] = Hepatitis B virus, read-out: EC50
[6] = DMEM-F12 without phenol red with 10% FBS, plasma or biological fluid, kinetic from dmso stock

In the case of `Nc1cc(Oc2ccc(Cl)cc2Cl)nc(N)[n+]1[O-]` [Compound 57, 2,6-Diamino-4-(2′,4′-dichloro)-1,6-dihydropyrimidine 1-oxide], the melting point is reported as 160 °C, the EC50 [1, 5] is reported as greater than 100 µM and the Papp interpretation (high/low permeability category) at 2 h, 200 µM [2] is reported as greater than 1 ×10⁻⁶ cm/s. It also gave a Papp at 2 h, 200 µM [2] of 2.99 ×10⁻⁶ cm/s and a solubility [3, 6] of 100 µM.
In the case of `Nc1cc(Oc2cc(Cl)c(Cl)cc2Cl)nc(N)[n+]1[O-]` [Compound 56, 2,6-Diamino-4-(2′,4′,5′-trichloro)-1,6-dihydropyrimidine 1-oxide], the melting point is reported as 135 °C, the EC50 [1, 5] is reported as greater than 100 µM and the Papp interpretation (high/low permeability category) at 2 h, 200 µM [2] is reported as greater than 1 ×10⁻⁶ cm/s. For the same compound, the Papp at 2 h, 200 µM [2] was 3.85 ×10⁻⁶ cm/s and the solubility [3, 6] was 167 µM.
With `COC(=O)c1cc(Cl)c(CON=C(C)c2c(C)cc(=O)n(O)c2O)c(Cl)c1` [Compound 36, Methyl 3,5-dichloro-4-((((1-(1,2-dihydroxy-4-methyl-6-oxo-1,6-dihydropyridin-3-yl)ethylidene)amino)oxy)methyl)benzoate] the melting point was 117 to 119 °C (dec.), the CC50 at 72 h [4] was 100 µM and the EC50 [1, 5] was 3.1 ± 0.4 µM. For the same compound, the Papp interpretation (high/low permeability category) at 2 h, 200 µM [2] was greater than 1 ×10⁻⁶ cm/s, the Papp at 2 h, 200 µM [2] was 4.35 ×10⁻⁶ cm/s and the solubility [3, 6] was 163 µM.
In the case of `COc1cccc(CON=C(C)c2c(C)cc(=O)n(O)c2O)c1` [Compound 35, 1,6-Dihydroxy-5-(1-(((3-methoxybenzyl)oxy)imino)ethyl)-4-methylpyridin-2(1H)-one], the melting point is reported as 120 to 122 °C (dec.), the CC50 at 72 h [4] is reported as 90 ± 14.1 µM and the EC50 [1, 5] is reported as 1.9 ± 1.2 µM. It also gave a Papp interpretation (high/low permeability category) at 2 h, 200 µM [2] greater than 1 ×10⁻⁶ cm/s, a Papp at 2 h, 200 µM [2] of 6.19 ×10⁻⁶ cm/s and a solubility [3, 6] of 117 µM.
Work on `COC(=O)c1ccc(CON=C(C)c2c(C)cc(=O)n(O)c2O)c(C#N)c1` [Compound 44, 2′-Cyano-4′-((((1′-(1,2-dihydroxy-4-methyl-6-oxo-1,6-dihydropyridin-5-yl)ethylidene)amino)oxy)methyl)methyl benzoate] yielded a melting point of 115 °C, a CC50 at 72 h [4] of 91.9 ± 11.2 µM and an EC50 [1, 5] of 7.7 ± 1.4 µM. It also gave a Papp interpretation (high/low permeability category) at 2 h, 200 µM [2] greater than 1 ×10⁻⁶ cm/s, a Papp at 2 h, 200 µM [2] of 5.42 ×10⁻⁶ cm/s and a solubility [3, 6] greater than 200 µM.
In the case of `COC(=O)c1ccc(C(C)ON=C(C)c2c(C)cc(=O)n(O)c2O)cc1` (centres unmarked) [Compound 34, Methyl-4-(1-(((1-(1,2-dihydroxy-4-methyl-6-oxo-1,6-dihydropyridin-3-yl)ethylidene)amino)oxy)ethyl)benzoate], the melting point is reported as 130 °C (dec.), the CC50 at 72 h [4] is reported as 96 ± 5.7 µM and the EC50 [1, 5] is reported as 6.3 ± 5.5 µM. It also gave a Papp interpretation (high/low permeability category) at 2 h, 200 µM [2] greater than 1 ×10⁻⁶ cm/s, a Papp at 2 h, 200 µM [2] of 2.5 ×10⁻⁶ cm/s and a solubility [3, 6] of 50 µM.
For `C#CCCON=C(C)c1c(C)cc(=O)n(O)c1O` [Compound 41, 5-(1-((But-3-yn-1-yloxy)imino)ethyl)-1,6-dihydroxy-4-methylpyridin-2(1H)-one], the melting point was 86 to 89 °C (dec.), the CC50 at 72 h [4] was 57.5 ± 32.4 µM and the EC50 [1, 5] was 1.2 ± 0.2 µM. It also gave a Papp interpretation (high/low permeability category) at 2 h, 200 µM [2] greater than 1 ×10⁻⁶ cm/s, a Papp at 2 h, 200 µM [2] of 2.24 ×10⁻⁶ cm/s and a solubility [3, 6] greater than 200 µM.
With `COC(=O)c1ccc(CO/N=C(\C)C2C(=O)NC(=O)NC2=O)cc1` [Compound 59, Methyl 4′-((((1-(2,4,6-Trioxohexahydropyrimidin-5-yl)ethylidene)amino)oxy)methyl)benzoate] the melting point was greater than 250 °C, the EC50 [1] was “lacked any inhibitory activity” and the “Papp Interpretation” value [2] was “INS”. The Papp [2] was “INS” and the “Solubility Limit” value [3] was “INS”.
For “2,6-Diamino-4-(3-methoxyphenoxy)-1,6-dihydropyrimidine 1-oxide [Compound 55]”, the “Papp Interpretation” value [2] was “H (High rate of apparent passive permeability (>1 × 10^−6 cm/s))”, the Papp [2] was 6.17 ×10⁻⁶ cm/s and the solubility [3] was greater than 200 µM.
For `COc1ccc(COc2cc(N)[n+]([O-])c(N)n2)cc1` [Compound 58, 2,6-Diamino-4-((4-methoxybenzyl)oxy)pyrimidine 1-oxide], the melting point was greater than 250 °C, the EC50 [1, 5] was greater than 100 µM and the Papp interpretation (high/low permeability category) at 2 h, 200 µM [2] was greater than 1 ×10⁻⁶ cm/s. The Papp at 2 h, 200 µM [2] was 2.56 ×10⁻⁶ cm/s and the solubility [3, 6] was greater than 200 µM.
